# In patent US6579686B2, “Constitutive androstane receptor” (SmithKline Beecham Corporation, priority 2000, dated 2003):
# Entries after “also recorded” stand apart in the source; their conditions may differ. Where two headings read alike, the source gives them in different places.
# Columns and labels:
# human CAR (hCAR) [1] = target: T1, human CAR (hCAR) (Homo sapiens, UniProt Q14994); details: for EC50: read-out: EC50 values for activation/deactivation of CAR, HCAR, transfected CV-1 cells, 0.0001 μM to 10 μM in half-log steps, EC50 given only for ≧ 2-fold activation or deactivation relative to basal activity
# T1 sequence (Q14994 1-348 isoform Q14994-2): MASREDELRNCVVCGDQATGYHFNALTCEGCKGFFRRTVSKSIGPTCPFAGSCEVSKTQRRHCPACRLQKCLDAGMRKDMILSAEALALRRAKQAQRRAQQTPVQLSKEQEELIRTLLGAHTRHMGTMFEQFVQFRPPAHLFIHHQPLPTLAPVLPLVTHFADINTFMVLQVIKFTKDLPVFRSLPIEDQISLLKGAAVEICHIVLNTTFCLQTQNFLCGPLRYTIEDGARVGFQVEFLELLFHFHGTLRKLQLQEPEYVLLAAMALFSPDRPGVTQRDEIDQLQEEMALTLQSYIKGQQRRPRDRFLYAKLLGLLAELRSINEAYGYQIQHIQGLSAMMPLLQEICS
# mouse CAR (mCAR) [2] = target: T2, mouse CAR (mCAR) (Mus musculus, UniProt O35627)
# T2 sequence (O35627 1-358): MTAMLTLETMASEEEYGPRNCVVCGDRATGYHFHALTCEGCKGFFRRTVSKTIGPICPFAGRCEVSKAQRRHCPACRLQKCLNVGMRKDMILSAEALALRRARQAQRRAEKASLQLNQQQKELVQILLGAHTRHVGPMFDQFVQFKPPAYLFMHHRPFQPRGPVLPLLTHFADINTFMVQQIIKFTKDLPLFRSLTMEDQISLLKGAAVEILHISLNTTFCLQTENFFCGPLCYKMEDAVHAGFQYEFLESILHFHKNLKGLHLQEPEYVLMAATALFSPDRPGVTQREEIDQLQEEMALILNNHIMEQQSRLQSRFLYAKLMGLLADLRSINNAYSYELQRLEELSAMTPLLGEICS
# hCAR/SRC-1 interaction = target: T3, hCAR/SRC-1 interaction (Homo sapiens, UniProt Q14994); test: FRET ligand sensing assay, hCAR LBD with SRC-1 LXXLL peptide; format: biochemical; details: SRC-1 peptide amino acids 676 to 700
# T3 construct: or 103-348 of hCAR; made in house; host or cells: E. coli BL21(DE3), pRSETa
# T3 sequence (Q14994 103-348 isoform Q14994-2): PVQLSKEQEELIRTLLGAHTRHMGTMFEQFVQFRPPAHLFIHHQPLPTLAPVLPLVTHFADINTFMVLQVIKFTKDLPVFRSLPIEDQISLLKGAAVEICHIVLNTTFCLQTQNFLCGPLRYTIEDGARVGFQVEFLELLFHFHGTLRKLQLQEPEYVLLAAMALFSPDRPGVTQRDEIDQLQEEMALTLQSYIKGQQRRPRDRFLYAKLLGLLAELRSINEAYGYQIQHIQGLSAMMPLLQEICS
# Method: The mCAR and hCAR LBD were each expressed in E. coli strain BL21(DE3) as a polyhistidine-tagged fusion protein. […] Cells were lysed by passing 3 times through an APV Rannie MINI-lab homogenizer and cell debris was removed by centrifugation (30 minutes, 20,000 g, 4° C.). After adjusting the imidazole concentration to 50 mM, the lysate was loaded onto a column packed with Sepharose [Ni^++ charged] Chelation resin (Pharmacia) and pre-equilibrated with TBS pH 8.0/50 mM imidazole. […] The recombinant protein was eluted with a gradient from 50 to 500 mM imidazole. Column peak fractions were pooled immediately and diluted 5-7 fold with 25 mM Tris pH 8.0, containing 5% 1,2-propanediol, 0.5 mM EDTA and 5 mM DTT. The diluted protein sample was then loaded onto a column packed with Poros HQ resin (PerSeptive Biosystems) and eluted with a gradient from 0-500 mM NaCl. Peak fractions were pooled and concentrated using Centri-prep 10K (Amicon) and subjected to size exclusion, using a column packed with Superdex-75 resin (Pharmacia) pre-equilibrated with TBS, pH 8.0, containing 5% 1,2-propanediol, 0.5 mM EDTA and 5 mM DTT.
# The purified CAR LBDs were desalted/buffer exchanged using PD-10 gel filtration columns into PBS [100 mM NaPhosphate, pH 7.2, 150 mM NaCl]. […]
# Fluorescence resonance energy transfer (FRET) ligand sensing assay. […]
# hCAR LBD = target: T4, hCAR LBD (Homo sapiens, UniProt Q14994); test: Scintillation proximity binding assay with [3H]clotrimazole; details: 10 nM [3H]clotrimazole, 10 μM competitor
# T4 construct: or 103-348 of hCAR; made in house; host or cells: E. coli BL21(DE3), pRSETa
# T4 sequence (Q14994 103-348 isoform Q14994-2): T3 sequence (Q14994 103-348 isoform Q14994-2)
# Method: Scintillation proximity binding assay. Streptavidin polyvinyltoluene SPA beads (Amersham Pharmacia Biotech) were resuspended in assay buffer (50 mM Tris, 50 mM KCl, 1 mM CHAPS, 0.1 mg/ml BSA, 10 mM DTT). Biotinylated hCAR LBD was added to a final concentration of 50 nM. The amount of biotinylated receptor can be varied to account for variations in the extent of biotinylation and/or the observed S/N ratio for different batches of receptor. […] The receptor/bead mixture was allowed to incubate at room temperature for 15 min with gentle agitation. Uncoupled receptor was removed by centrifuging the receptor/bead mixture at 2500 rpm for 10 min and pouring off the supernatant. Receptor-coupled beads were resuspended in assay buffer and a second wash performed. All experiments were run in Costar 96-well SPA plates using an assay volume of 100 μl.
# mouse CAR (mCAR) [3] = target: T2, mouse CAR (mCAR); test: in vitro
# human CAR (hCAR) [4] = target: T1, human CAR (hCAR); test: cell-based
# human CAR (hCAR) [5] = target: T1, human CAR (hCAR); test: in vitro
# [6] = CV-1 cells, PB tested at 0.5 mM (high concentrations)
# [7] = read-out: EC50 values for activation/deactivation of CAR, mCAR, transfected CV-1 cells, 0.0001 μM to 10 μM in half-log steps, EC50 given only for ≧ 2-fold activation or deactivation relative to basal activity
Structure (SMILES),competition with [3H]clotrimazole for binding to hCAR (in words) (hCAR LBD),"effect on hCAR reporter activity (in words) (human CAR (hCAR) [1]; CV-1 cells, screened at 10 μM)",EC50 (human CAR (hCAR) [1]) [µM],"effect on mCAR reporter activity (in words) (mouse CAR (mCAR) [2]; CV-1 cells, screened at 10 μM)",EC50 (mouse CAR (mCAR) [2]; [7]) [µM],EC50 at 24 h (mouse CAR (mCAR) [3]) [µM],other results
"CCC1(c2ccccc2)C(=O)NC(=O)NC1=O [PB, phenobarbital]",–,–,–,–,–,–,effect on hCAR reporter activity (in words) (human CAR (hCAR) [1]; [6]): weak but reproducible deactivation; also recorded: deactivated hCAR; effect on mCAR reporter activity (in words) (mouse CAR (mCAR) [2]; [6]): weak but reproducible deactivation
C[C@@]12CCC[C@H]1[C@@H]1CC[C@H]3C[C@@H](O)CC[C@]3(C)[C@H]1CC2 [androstanol],competed efficiently,"deactivated hCAR, though the effect was not nearly as pronounced as on mCAR",> 10,efficacious deactivator of mCAR,0.84,–,effect on hCAR LBD/SRC-1 interaction (in words) (hCAR/SRC-1 interaction): disrupted this interaction
Clc1ccccc1C(c1ccccc1)(c1ccccc1)n1ccnc1 [clotrimazole],–,efficacious deactivator of hCAR,–,–,–,–,–
"CC(=O)[C@H]1CC[C@H]2[C@@H]3CC[C@@H]4CC(=O)CC[C@]4(C)[C@H]3CC[C@]12C [5β-pregnane-3,20-dione]",competed efficiently,–,–,only weak effects,–,> 10,"effect on hCAR LBD/SRC-1 interaction (in words) (hCAR/SRC-1 interaction): marked increase in the binding of SRC-1 to hCAR; activation of hCAR (human CAR (hCAR) [1]; CV-1 cells, relative to basal activity): ~2 fold; EC50 (human CAR (hCAR) [4]): 0.67 µM"
CCOP(=O)(OCC)C(=Cc1cc(C(C)(C)C)c(O)c(C(C)(C)C)c1)P(=O)(OCC)OCC [SR12813],did not compete,little or no effect; also recorded: little or no activity,> 10,little or no effect,> 10,–,–
C[C@@H]1C[C@H]2[C@@H]3CCC4=CC(=O)C=C[C@]4(C)[C@@]3(F)[C@@H](O)C[C@]2(C)[C@@]1(O)C(=O)CO [dexamethasone],–,–,–,–,–,> 10,EC50 at 24 h (human CAR (hCAR) [5]): > 10 µM
CC#C[C@]1(O)CC[C@H]2[C@@H]3CCC4=CC(=O)CCC4=C3[C@@H](c3ccc(N(C)C)cc3)C[C@@]21C [RU486],–,–,–,–,–,> 10,EC50 at 24 h (human CAR (hCAR) [5]): > 10 µM
"Clc1cnc(Oc2ccc(Oc3ncc(Cl)cc3Cl)cc2)c(Cl)c1 [TCPOBOP, 1,4-bis[2-(3,5-dichloropyridyloxy)]benzene]",did not compete,virtually no activity; also recorded: little or no activity,> 10,efficacious activator of mCAR,0.1,–,"EC50 (mouse CAR (mCAR) [2]; read-out: EC50 for activation of mCAR, CV-1 cells): ~0.1 µM"
